Tests used:
Format in all cases: functional
[1] = test system: NB-1691; experiment: Synergistic cytotoxicity against human NB-1691 cells assessed as combination index at ED 75 measured after 72 hrs in presence of temozolomide and SN-38 by Cell-titer Glo reagent assay
[2] = test system: NB-1691; experiment: Synergistic cytotoxicity against human NB-1691 cells assessed as combination index at ED 50 measured after 72 hrs in presence of temozolomide and SN-38 by Cell-titer Glo reagent assay
[3] = test system: SK-N-FI; experiment: Synergistic cytotoxicity against human SK-N-FI cells assessed as combination index at ED 50 measured after 72 hrs in presence of SN-38 by Cell-titer Glo reagent assay
[4] = test system: SK-N-FI; experiment: Synergistic cytotoxicity against human SK-N-FI cells assessed as combination index at ED 75 measured after 72 hrs in presence of SN-38 by Cell-titer Glo reagent assay
[5] = test system: SK-N-FI; experiment: Synergistic cytotoxicity against human SK-N-FI cells assessed as combination index at ED 50 measured after 72 hrs in presence of temozolomide by Cell-titer Glo reagent assay
[6] = Synergistic cytotoxicity against human NB-1771 cells assessed as combination index at ED 50 measured after 72 hrs in presence of concurrent treatment of […] inhibitor CI-1040 by Cell-titer Glo reagent assay
[7] = test system: SK-N-FI; experiment: Synergistic cytotoxicity against human SK-N-FI cells assessed as combination index at ED 75 measured after 72 hrs in presence of concurrent treatment of […] inhibitor CI-1040 by Cell-titer Glo reagent assay
[8] = test system: SK-N-FI; experiment: Synergistic cytotoxicity against human SK-N-FI cells assessed as combination index at ED 75 measured after 72 hrs in presence of sequential treatment of […] inhibitor CI-1040 by Cell-titer Glo reagent assay
[9] = test system: NCI-H23; experiment: Synergistic cytotoxicity against human NCI-H23 cells assessed as combination index at ED 50 measured after 72 hrs in presence of MEK inhibitor GSK1120212 by Cell-titer Glo reagent assay
[10] = test system: NCI-H2228; experiment: Synergistic cytotoxicity against human NCI-H2228 cells assessed as combination index at ED 50 measured after 72 hrs in presence of MEK inhibitor GSK1120212 by Cell-titer Glo reagent assay
[11] = test system: NCI-H1299; experiment: Synergistic cytotoxicity against human NCI-H1299 cells expressing NRAS mutant assessed as combination index at ED 50 measured after 72 hrs in presence of MEK inhibitor GSK1120212 by Cell-titer Glo reagent assay
[12] = test system: Calu-6; experiment: Synergistic cytotoxicity against human Calu-6 cells expressing KRAS mutant assessed as combination index at ED 50 measured after 72 hrs in presence of MEK inhibitor GSK1120212 by Cell-titer Glo reagent assay
[13] = test system: A549; experiment: Synergistic cytotoxicity against human A549 cells expressing KRAS mutant assessed as combination index at ED 50 measured after 72 hrs in presence of MEK inhibitor GSK1120212 by Cell-titer Glo reagent assay
[14] = test system: SW900; experiment: Synergistic cytotoxicity against human SW900 cells expressing KRAS mutant assessed as combination index at ED 50 measured after 72 hrs in presence of MEK inhibitor GSK1120212 by Cell-titer Glo reagent assay
[15] = test system: ASPC1; experiment: Synergistic cytotoxicity against human ASPC1 cells assessed as combination index at ED 50 measured after 72 hrs in presence of MEK inhibitor GSK1120212 by Cell-titer Glo reagent assay
[16] = test system: YAPC; experiment: Synergistic cytotoxicity against human […] cells expressing KRAS mutant assessed as combination index at ED 50 measured after 72 hrs in presence of MEK inhibitor GSK1120212 by Cell-titer Glo reagent assay
[17] = test system: SW-620; experiment: Synergistic cytotoxicity against human SW620 cells expressing KRAS mutant assessed as combination index at ED 50 measured after 72 hrs in presence of MEK inhibitor GSK1120212 by Cell-titer Glo reagent assay
[18] = test system: HCT-116; experiment: Synergistic cytotoxicity against human HCT-116 cells expressing KRAS mutant assessed as combination index at ED 50 measured after 72 hrs in presence of MEK inhibitor GSK1120212 by Cell-titer Glo reagent assay
[19] = test system: NCI-H460; experiment: Synergistic cytotoxicity against human NCI-H460 cells expressing KRAS mutant assessed as combination index at ED75 measured after 72 hrs in presence of MEK inhibitor GSK1120212 by Cell-titer Glo reagent assay
[20] = test system: NCI-H2170; experiment: Synergistic cytotoxicity against human NCI-H2170 cells assessed as combination index at ED75 measured after 72 hrs in presence of MEK inhibitor GSK1120212 by Cell-titer Glo reagent assay
[21] = test system: A549; experiment: Synergistic cytotoxicity against human A549 cells expressing KRAS mutant assessed as combination index at ED75 measured after 72 hrs in presence of MEK inhibitor GSK1120212 by Cell-titer Glo reagent assay
[22] = test system: SW900; experiment: Synergistic cytotoxicity against human SW900 cells expressing KRAS mutant assessed as combination index at ED75 measured after 72 hrs in presence of MEK inhibitor GSK1120212 by Cell-titer Glo reagent assay
[23] = test system: NCI-H520; experiment: Synergistic cytotoxicity against human NCI-H520 cells assessed as combination index at ED75 measured after 72 hrs in presence of MEK inhibitor GSK1120212 by Cell-titer Glo reagent assay
[24] = test system: NCI-H2122; experiment: Synergistic cytotoxicity against human NCI-H2122 cells expressing KRAS mutant assessed as combination index at ED75 measured after 72 hrs in presence of MEK inhibitor GSK1120212 by Cell-titer Glo reagent assay
[25] = test system: CAPAN-1; experiment: Synergistic cytotoxicity against human CAPAN-1 cells expressing KRAS mutant assessed as combination index at ED75 measured after 72 hrs in presence of MEK inhibitor GSK1120212 by Cell-titer Glo reagent assay
[26] = test system: HuP-T4; experiment: Synergistic cytotoxicity against human HuP-T4 cells expressing KRAS mutant assessed as combination index at ED75 measured after 72 hrs in presence of MEK inhibitor GSK1120212 by Cell-titer Glo reagent assay
[27] = test system: YAPC; experiment: Synergistic cytotoxicity against human […] cells expressing KRAS mutant assessed as combination index at ED75 measured after 72 hrs in presence of MEK inhibitor GSK1120212 by Cell-titer Glo reagent assay
[28] = test system: RKO; experiment: Synergistic cytotoxicity against human RKO cells expressing BRAF mutant assessed as combination index at ED75 measured after 72 hrs in presence of MEK inhibitor GSK1120212 by Cell-titer Glo reagent assay
[29] = test system: SW-620; experiment: Synergistic cytotoxicity against human SW620 cells expressing KRAS mutant assessed as combination index at ED75 measured after 72 hrs in presence of MEK inhibitor GSK1120212 by Cell-titer Glo reagent assay
[30] = test system: HCT-116; experiment: Synergistic cytotoxicity against human HCT-116 cells expressing KRAS mutant assessed as combination index at ED75 measured after 72 hrs in presence of MEK inhibitor GSK1120212 by Cell-titer Glo reagent assay

CC(C)Oc1ccc(C(=O)N[C@H](CNC(=O)CN(C)C)Cc2ccc(-c3cn4cccc([C@H](C)O)c4n3)cc2)cc1Cl [GSK-923295A]
CI [1]: 0.3
CI [2]: 0.049
CI [3]: 1.845
CI [4]: 1.754
CI [5]: 0.837
CI [6]: 0.136
CI [7]: 0.379
CI [8]: 0.757
CI [9]: 0.259
CI [10]: 0.317
CI [11]: 0.382
CI [12]: 0.556
CI [13]: 0.614
CI [14]: 0.705
CI [15]: 0.566
CI [16]: 0.659
CI [17]: 0.521
CI [18]: 0.695
CI [19]: 0.294
CI [20]: 0.624
CI [21]: 0.402
CI [22]: 0.653
CI [23]: 0.715
CI [24]: 0.796
CI [25]: 0.091
CI [26]: 0.892
CI [27]: 1.31
CI [28]: 0.206
CI [29]: 0.289
CI [30]: 0.384
